In one assay the target is T1, ATR kinase (Homo sapiens, UniProt Q13535).
T1 construct: Assays were carried out at 25° C. in the presence of 5 nM full-length ATR
Put plainly: ATR Inhibition Assay (radioactive-phosphate incorporation). The assay is classed as biochemical. The conditions noted are these: Ki(app); 5 nM full-length ATR, 10 μM ATP, 800 μM target peptide, 25° C. On the procedure:
Compounds were screened for their ability to inhibit ATR kinase using a radioactive-phosphate incorporation assay. Assays were carried out in a mixture of 50 mM Tris/HCl (pH 7.5), 10 mM MgCl2 and 1 mM DTT. Final substrate concentrations were 10 μM [γ-33P]ATP (3 mCi 33P ATP/mmol ATP, Perkin Elmer) and 800 μM target peptide (ASELPASQPQPFSAKKK (SEQ. ID NO: 1)).
Assays were carried out at 25° C. in the presence of 5 nM full-length ATR. An assay stock buffer solution was prepared containing all of the reagents listed above, with the exception of ATP and the test compound of interest. 13.5 μL of the stock solution was placed in a 96 well plate followed by addition of 2 μL of DMSO stock containing serial dilutions of the test compound (typically starting from a final concentration of 15 μM with 3-fold serial dilutions) in duplicate (final DMSO concentration 7%). The plate was pre-incubated for 10 minutes at 25° C. and the reaction initiated by addition of 15 μL [γ-33P]ATP (final concentration 10 μM).
The reaction was stopped after […] by the addition of 30 μL, 0.1M phosphoric acid containing 2 mM ATP. A multiscreen phosphocellulose filter 96-well plate (Millipore, Cat no. MAPHN0B50) was pretreated with 100 μL 0.2M phosphoric acid prior to the addition of 45 μL of the stopped assay mixture. The plate was washed with 5×200 μL 0.2M phosphoric acid. After drying, 100 μL Optiphase ‘SuperMix’ liquid scintillation cocktail (Perkin Elmer) was added to the well prior to scintillation counting (1450 Microbeta Liquid Scintillation Counter, Wallac).
After removing mean background values for all of the data points, Ki(app) data were calculated from non-linear regression analysis of the initial rate data using the Prism software package (GraphPad Prism version 3.0cx for Macintosh, GraphPad Software, San Diego Calif., USA).
Compounds with a Ki value of <0.01 μM are marked with “+++.” Compounds with a Ki value >0.01 μM but <1 μM are marked with “++.” Compounds with a Ki value >1 μM but <5 μM are marked with “+.”

The test system of assay [1] is HCT116 colorectal cancer cells. Put plainly: Cisplatin Sensitization Assay (96 h cell viability MTS). The assay is classed as cell-based. The conditions noted are these: concentration of compound required to reduce the IC50 of Cisplatin alone by at least 3-fold; HCT116, 96 h MTS. On the procedure: Compounds can be screened for their ability to sensitize HCT116 colorectal cancer cells to Cisplatin using a 96 h cell viability (MTS) assay. […] Compounds and Cisplatin are then both added simultaneously to the cell media in 2-fold serial dilutions from a top final concentration of 10 μM as a full matrix of concentrations in a final cell volume of 200 μl, and the cells are then incubated at 37° C. in 5% CO2. After 96 h, 40 μl of MTS reagent (Promega G358a) is added to each well and the cells are incubated for 1 h at 37° C. in 5% CO2. Finally, absorbance is measured at 490 nm using a SpectraMax Plus 384 reader (Molecular Devices) and the concentration of compound required to reduce the IC50 of Cisplatin alone by at least 3-fold (to 1 decimal place) can be reported.
Compounds with a Cisplatin sensitization value of <0.02 μM are marked with “+++.” Compounds with a Cisplatin sensitization value>0.02 μM but <0.2 μM are marked with “++.” Compounds with a Cisplatin sensitization value >0.2 μM but <5 μM are marked with “+.”

Bounds are passed on as bounds.

T1 sequence (Q13535 whole entry): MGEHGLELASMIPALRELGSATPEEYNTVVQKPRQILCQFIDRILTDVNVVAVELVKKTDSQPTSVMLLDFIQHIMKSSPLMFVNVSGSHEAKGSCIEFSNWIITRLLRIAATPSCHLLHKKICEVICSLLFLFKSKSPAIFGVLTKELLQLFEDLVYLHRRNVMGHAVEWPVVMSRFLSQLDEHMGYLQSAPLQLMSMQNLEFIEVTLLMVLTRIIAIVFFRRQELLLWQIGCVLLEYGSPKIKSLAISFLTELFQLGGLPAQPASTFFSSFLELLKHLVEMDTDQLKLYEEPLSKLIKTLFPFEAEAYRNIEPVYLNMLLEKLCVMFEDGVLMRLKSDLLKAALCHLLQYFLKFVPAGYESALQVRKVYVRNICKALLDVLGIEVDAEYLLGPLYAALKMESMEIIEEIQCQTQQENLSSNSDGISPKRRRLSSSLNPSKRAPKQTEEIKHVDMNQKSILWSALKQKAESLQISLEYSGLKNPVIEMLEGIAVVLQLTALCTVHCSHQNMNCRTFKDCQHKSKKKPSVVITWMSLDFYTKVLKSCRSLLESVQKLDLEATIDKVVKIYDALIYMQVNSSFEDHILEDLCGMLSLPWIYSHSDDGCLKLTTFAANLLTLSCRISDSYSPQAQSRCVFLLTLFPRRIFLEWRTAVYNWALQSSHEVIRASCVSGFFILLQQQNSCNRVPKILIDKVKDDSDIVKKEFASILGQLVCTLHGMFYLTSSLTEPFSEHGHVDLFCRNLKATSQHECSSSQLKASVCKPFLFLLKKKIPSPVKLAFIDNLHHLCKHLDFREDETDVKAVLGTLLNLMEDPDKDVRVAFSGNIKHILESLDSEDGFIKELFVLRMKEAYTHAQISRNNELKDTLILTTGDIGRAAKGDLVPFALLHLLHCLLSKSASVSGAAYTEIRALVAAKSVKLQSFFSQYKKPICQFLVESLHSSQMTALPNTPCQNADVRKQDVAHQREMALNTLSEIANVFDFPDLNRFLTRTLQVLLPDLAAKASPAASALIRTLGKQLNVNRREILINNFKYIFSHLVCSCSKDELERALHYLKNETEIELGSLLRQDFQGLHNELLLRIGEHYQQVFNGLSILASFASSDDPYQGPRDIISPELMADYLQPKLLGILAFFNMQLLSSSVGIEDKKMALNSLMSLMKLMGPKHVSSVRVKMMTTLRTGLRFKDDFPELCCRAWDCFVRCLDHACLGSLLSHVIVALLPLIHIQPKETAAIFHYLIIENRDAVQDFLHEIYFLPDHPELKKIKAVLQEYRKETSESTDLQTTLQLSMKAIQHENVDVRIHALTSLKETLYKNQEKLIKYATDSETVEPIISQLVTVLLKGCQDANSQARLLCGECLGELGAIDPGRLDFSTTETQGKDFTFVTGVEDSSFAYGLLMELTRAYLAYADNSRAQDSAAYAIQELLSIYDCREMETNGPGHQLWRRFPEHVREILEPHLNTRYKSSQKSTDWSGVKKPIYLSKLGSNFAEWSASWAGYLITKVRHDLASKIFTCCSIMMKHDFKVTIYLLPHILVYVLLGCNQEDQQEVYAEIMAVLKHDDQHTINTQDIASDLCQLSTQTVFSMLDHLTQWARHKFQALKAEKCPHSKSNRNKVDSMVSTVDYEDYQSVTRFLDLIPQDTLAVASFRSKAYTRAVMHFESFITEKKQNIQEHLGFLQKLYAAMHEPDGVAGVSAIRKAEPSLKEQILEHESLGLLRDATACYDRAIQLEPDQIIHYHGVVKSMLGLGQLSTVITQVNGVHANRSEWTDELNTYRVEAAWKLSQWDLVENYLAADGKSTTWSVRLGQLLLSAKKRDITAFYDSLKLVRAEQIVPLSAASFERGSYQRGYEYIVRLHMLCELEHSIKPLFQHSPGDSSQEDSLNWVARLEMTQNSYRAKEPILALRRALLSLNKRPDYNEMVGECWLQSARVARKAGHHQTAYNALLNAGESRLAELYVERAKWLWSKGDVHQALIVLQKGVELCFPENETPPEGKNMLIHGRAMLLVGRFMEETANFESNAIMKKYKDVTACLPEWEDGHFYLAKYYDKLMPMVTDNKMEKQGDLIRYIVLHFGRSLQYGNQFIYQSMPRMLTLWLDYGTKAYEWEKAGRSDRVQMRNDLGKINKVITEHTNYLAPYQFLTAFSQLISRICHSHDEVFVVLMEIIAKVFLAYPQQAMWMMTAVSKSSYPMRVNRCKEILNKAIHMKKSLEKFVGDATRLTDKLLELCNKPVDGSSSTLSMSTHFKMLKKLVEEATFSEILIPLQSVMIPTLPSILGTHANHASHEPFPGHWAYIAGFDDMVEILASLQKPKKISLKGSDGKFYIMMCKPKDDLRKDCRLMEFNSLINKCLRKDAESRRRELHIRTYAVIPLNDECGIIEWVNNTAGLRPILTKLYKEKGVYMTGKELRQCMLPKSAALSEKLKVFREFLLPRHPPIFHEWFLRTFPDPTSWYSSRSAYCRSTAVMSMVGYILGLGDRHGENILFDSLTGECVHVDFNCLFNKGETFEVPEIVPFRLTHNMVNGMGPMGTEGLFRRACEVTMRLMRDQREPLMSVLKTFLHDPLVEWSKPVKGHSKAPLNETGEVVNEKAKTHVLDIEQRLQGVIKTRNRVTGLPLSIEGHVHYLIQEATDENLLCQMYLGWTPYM

With `CN(C)CCOc1cc(C(F)(F)F)ncc1NC(=O)c1c(N)nn2ccc(C(F)(F)F)nc12` [I-O-51, 2-amino-N-(4-(2-(dimethylamino)ethoxy)-6-(trifluoromethyl)pyridin-3-yl)-5-(trifluoromethyl)pyrazolo[1,5-a]pyrimidine-3-carboxamide], the Ki at ATR kinase lay within 10 to 1000 nM. Moreover, the “Synergy with Cisplatin” value in assay [1] is recorded as “+ (Compounds with a Cisplatin sensitization value >0.2 μM but <5 μM are marked with “+.”)”.
Consider `COc1cc(Cl)ncc1NC(=O)c1c(N)nn2ccc(OCCN(C)C)nc12` [I-O-65, 2-amino-N-(6-chloro-4-methoxypyridin-3-yl)-5-(2-(dimethylamino)ethoxy)pyrazolo[1,5-a]pyrimidine-3-carboxamide], for which the Ki on ATR kinase is 10 to 1000 nM. Further, the “Synergy with Cisplatin” value in assay [1] is given as “+ (Compounds with a Cisplatin sensitization value >0.2 μM but <5 μM are marked with “+.”)”.
Turning to `COc1cc(Cl)ncc1NC(=O)c1c(N)nn2ccc(C(F)(F)F)nc12` [I-O-47, 2-amino-N-(6-chloro-4-methoxypyridin-3-yl)-5-(trifluoromethyl)pyrazolo[1,5-a]pyrimidine-3-carboxamide], the Ki on ATR kinase fell in the range of 10 to 1000 nM. In addition, the “Synergy with Cisplatin” value in assay [1] was “++ (Compounds with a Cisplatin sensitization value>0.02 μM but <0.2 μM are marked with “++.”)”.
In the case of `Nc1nn2ccc(C(F)(F)F)nc2c1C(=O)Nc1cnccc1OCC1CC1` [I-O-6, 2-amino-N-(4-(cyclopropylmethoxy)pyridin-3-yl)-5-(trifluoromethyl)pyrazolo[1,5-a]pyrimidine-3-carboxamide], at ATR kinase, the Ki is < 10 nM. Moreover, in assay [1], the “Synergy with Cisplatin” value is reported as “+++ (Compounds with a Cisplatin sensitization value of <0.02 μM are marked with “+++.”)”.
As for `Nc1nn2ccc(C(F)(F)F)nc2c1C(=O)Nc1cnccc1OCC(F)(F)F` [I-O-3, 2-amino-N-(4-(2,2,2-trifluoroethoxy)pyridin-3-yl)-5-(trifluoromethyl)pyrazolo[1,5-a]pyrimidine-3-carboxamide], the Ki on ATR kinase was < 10 nM. Also, the “Synergy with Cisplatin” value in assay [1] is given as “+++ (Compounds with a Cisplatin sensitization value of <0.02 μM are marked with “+++.”)”.
For the molecule `COc1ccncc1NC(=O)c1c(N)nn2ccc(OCCCN3CCC3)nc12` [I-O-63, 2-amino-5-(3-(azetidin-1-yl)propoxy)-N-(4-methoxypyridin-3-yl)pyrazolo[1,5-a]pyrimidine-3-carboxamide], on ATR kinase, the Ki is 10 to 1000 nM. Further, in assay [1], the “Synergy with Cisplatin” value is “++ (Compounds with a Cisplatin sensitization value>0.02 μM but <0.2 μM are marked with “++.”)”.
For `Nc1nn2ccc(C(F)(F)F)nc2c1C(=O)Nc1cnccc1OC1CCCNC1` (centres unmarked) [I-O-23, 2-amino-N-(4-(piperidin-3-yloxy)pyridin-3-yl)-5-(trifluoromethyl)pyrazolo[1,5-a]pyrimidine-3-carboxamide], on ATR kinase, the Ki was in the range of 10 to 1000 nM. Moreover, in assay [1], the “Synergy with Cisplatin” value is recorded as “++ (Compounds with a Cisplatin sensitization value>0.02 μM but <0.2 μM are marked with “++.”)”.
Consider `CC(C)Oc1ccncc1NC(=O)c1c(N)nn2ccc(N3CCN(C)CC3)nc12` [I-O-79, 2-amino-N-(4-isopropoxypyridin-3-yl)-5-(4-methylpiperazin-1-yl)pyrazolo[1,5-a]pyrimidine-3-carboxamide], for which the Ki at ATR kinase was 1000 to 5000 nM. Further, in assay [1], the “Synergy with Cisplatin” value was “+ (Compounds with a Cisplatin sensitization value >0.2 μM but <5 μM are marked with “+.”)”.
`CN1CC[C@@H](Oc2ccncc2NC(=O)c2c(N)nn3ccc(C(F)(F)F)nc23)C1` [I-O-19, (R)-2-amino-N-(4-((1-methylpyrrolidin-3-yl)oxy)pyridin-3-yl)-5-(trifluoromethyl)pyrazolo[1,5-a]pyrimidine-3-carboxamide]: the Ki at ATR kinase lay in the range of 10 to 1000 nM. Besides, in assay [1], the “Synergy with Cisplatin” value is “++ (Compounds with a Cisplatin sensitization value>0.02 μM but <0.2 μM are marked with “++.”)”.
For the molecule `CN(C)C1CCC(COc2ccncc2NC(=O)c2c(N)nn3ccc(C(F)(F)F)nc23)CC1` (centres unmarked) [I-O-42, 2-amino-N-(4-((4-(dimethylamino)cyclohexyl)methoxy)pyridin-3-yl)-5-(trifluoromethyl)pyrazolo[1,5-a]pyrimidine-3-carboxamide], on ATR kinase, the Ki was 10 to 1000 nM. The “Synergy with Cisplatin” value in assay [1] is reported as “+++ (Compounds with a Cisplatin sensitization value of <0.02 μM are marked with “+++.”)”.
As for `C=CCOCc1ccn2nc(N)c(C(=O)Nc3cnccc3OC)c2n1` [I-O-55, 5-((allyloxy)methyl)-2-amino-N-(4-methoxypyridin-3-yl)pyrazolo[1,5-a]pyrimidine-3-carboxamide], the Ki on ATR kinase was 10 to 1000 nM. Further, the “Synergy with Cisplatin” value in assay [1] is listed as “+++ (Compounds with a Cisplatin sensitization value of <0.02 μM are marked with “+++.”)”.
Taken in the same sequence, the figures for `COc1ccncc1NC(=O)c1c(N)nn2ccc(N3CCC(N(C)C)CC3)nc12` [I-O-80, 2-amino-5-(4-(dimethylamino)piperidin-1-yl)-N-(4-methoxypyridin-3-yl)pyrazolo[1,5-a]pyrimidine-3-carboxamide] were 10 to 1000 nM and “+ (Compounds with a Cisplatin sensitization value >0.2 μM but <5 μM are marked with “+.”)”.
Taken in the same sequence, the figures for `Nc1nn2ccc(C(F)(F)F)nc2c1C(=O)Nc1cnccc1O[C@H]1CCNC1` [I-O-21, (S)-2-amino-N-(4-(pyrrolidin-3-yloxy)pyridin-3-yl)-5-(trifluoromethyl)pyrazolo[1,5-a]pyrimidine-3-carboxamide] were 10 to 1000 nM and “++ (Compounds with a Cisplatin sensitization value>0.02 μM but <0.2 μM are marked with “++.”)”.
In the case of `COCCN1CCC[C@@H](Oc2ccncc2NC(=O)c2c(N)nn3ccc(C(F)(F)F)nc23)C1` [I-O-43, (R)-2-amino-N-(4-((1-(2-methoxyethyl)piperidin-3-yl)oxy)pyridin-3-yl)-5-(trifluoromethyl)pyrazolo[1,5-a]pyrimidine-3-carboxamide], at ATR kinase, the Ki was 10 to 1000 nM. Further, in assay [1], the “Synergy with Cisplatin” value is listed as “++ (Compounds with a Cisplatin sensitization value>0.02 μM but <0.2 μM are marked with “++.”)”.
With `CN1CCN(c2ccncc2NC(=O)c2c(N)nn3ccc(C(F)(F)F)nc23)CC1` [I-N-1, 2-amino-N-(4-(4-methylpiperazin-1-yl)pyridin-3-yl)-5-(trifluoromethyl)pyrazolo[1,5-a]pyrimidine-3-carboxamide], the Ki at ATR kinase lay within 10 to 1000 nM. The “Synergy with Cisplatin” value in assay [1] is recorded as “+ (Compounds with a Cisplatin sensitization value >0.2 μM but <5 μM are marked with “+.”)”.
Taken in the same sequence, the figures for `COc1ccncc1NC(=O)c1c(N)nn2ccc(CO)nc12` [I-O-54, 2-amino-5-(hydroxymethyl)-N-(4-methoxypyridin-3-yl)pyrazolo[1,5-a]pyrimidine-3-carboxamide] were 10 to 1000 nM and “++ (Compounds with a Cisplatin sensitization value>0.02 μM but <0.2 μM are marked with “++.”)”.
Take `Nc1nn2ccc(C(F)(F)F)nc2c1C(=O)Nc1cnccc1OCC1CCC(N)CC1` (centres unmarked) [I-O-37, 2-amino-N-(4-((4-aminocyclohexyl)methoxy)pyridin-3-yl)-5-(trifluoromethyl)pyrazolo[1,5-a]pyrimidine-3-carboxamide]: the Ki at ATR kinase was 10 to 1000 nM. The “Synergy with Cisplatin” value in assay [1] was “++ (Compounds with a Cisplatin sensitization value>0.02 μM but <0.2 μM are marked with “++.”)”.
For `COc1ccncc1NC(=O)c1c(N)nn2ccc(NCC3CCCN3C)nc12` (centres unmarked) [I-O-71], in that order: 10 to 1000 nM and “+ (Compounds with a Cisplatin sensitization value >0.2 μM but <5 μM are marked with “+.”)”.
For `Nc1nn2ccc(C(F)(F)F)nc2c1C(=O)Nc1cnccc1O[C@@H]1CCNC1` [I-O-25, (R)-2-amino-N-(4-(pyrrolidin-3-yloxy)pyridin-3-yl)-5-(trifluoromethyl)pyrazolo[1,5-a]pyrimidine-3-carboxamide], in that order: 10 to 1000 nM and “++ (Compounds with a Cisplatin sensitization value>0.02 μM but <0.2 μM are marked with “++.”)”.

The values are drawn from patent US8969360B2, “Compounds useful as inhibitors of ATR kinase” (Vertex Pharmaceuticals Incorporated, priority 2013, dated 2015).
